Source: the supplement of paper PMC10307832

Key:
Assay in all cases: relative viability (nuclei count vs DMSO), 5 days (fraction); higher = more cells survive
[1] = compound: CCN(CC)CCNC(=O)c1c(C)[nH]c(/C=C2\C(=O)Nc3ccc(F)cc32)c1C [Sunitinib] + CC(C)C[C@H](NC(=O)[C@H](Cc1ccccc1)NC(=O)c1cnccn1)B(O)O [Bortezomib] (partner 0.002 µM)
Method in brief: (§1)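 Lung cancer cell lines in 1536-well plates were dosed by pin tool the day after seeding, either with one drug alone or with a fixed anchor-drug dose plus five library-drug doses (not always all listed) in √10 steps. After 5 days, cells were fixed and their nuclei stained in one step (final 0.05% Triton X-100, 1% formaldehyde, 1 ug/ml Hoechst), then counted on 4× images. Relative viability is the nuclei count in treated wells divided by that in vehicle wells. Values are medians of duplicate plates.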

[2] = compound: CCN(CC)CCNC(=O)c1c(C)[nH]c(/C=C2\C(=O)Nc3ccc(F)cc32)c1C [Sunitinib] + CS(=O)(=O)N1CCN(Cc2cc3nc(-c4cccc5[nH]ncc45)nc(N4CCOCC4)c3s2)CC1 [Pictilisib] (partner 1 µM)
Method in brief: as §1

[3] = compound: CCN(CC)CCNC(=O)c1c(C)[nH]c(/C=C2\C(=O)Nc3ccc(F)cc32)c1C [Sunitinib] + COc1cc2c(Oc3ccc(NC(=O)C4(C(=O)Nc5ccc(F)cc5)CC4)cc3F)ccnc2cc1OCCCN1CCOCC1 [Foretinib] (partner 0.25 µM)
Method in brief: as §1

[4] = compound: CCN(CC)CCNC(=O)c1c(C)[nH]c(/C=C2\C(=O)Nc3ccc(F)cc32)c1C [Sunitinib] + CC(=O)c1c(C)c2cnc(Nc3ccc(N4CCNCC4)cn3)nc2n(C2CCCC2)c1=O [Palbociclib] (partner 0.5 µM)
Method in brief: as §1

| Cell Line | relative viability ([1]; first compound 0.02 µM) | relative viability ([1]; first compound 0.06325 µM) | relative viability ([1]; first compound 0.2 µM) | relative viability ([1]; first compound 0.6325 µM) | relative viability ([1]; first compound 2 µM) | relative viability ([2]; first compound 0.02 µM) | relative viability ([2]; first compound 0.06325 µM) | relative viability ([2]; first compound 0.2 µM) | relative viability ([2]; first compound 0.6325 µM) | relative viability ([2]; first compound 2 µM) | relative viability ([3]; first compound 0.02 µM) | relative viability ([3]; first compound 0.06325 µM) | relative viability ([3]; first compound 0.2 µM) | relative viability ([3]; first compound 0.6325 µM) | relative viability ([3]; first compound 2 µM) | relative viability ([4]; first compound 0.02 µM) | relative viability ([4]; first compound 0.06325 µM) | relative viability ([4]; first compound 0.2 µM) | relative viability ([4]; first compound 0.6325 µM) | relative viability ([4]; first compound 2 µM) |
| --- | --- | --- | --- | --- | --- | --- | --- | --- | --- | --- | --- | --- | --- | --- | --- | --- | --- | --- | --- | --- |
| 201T | 1.08 | 1.09 | 1.13 | 1.09 | 1.08 | 0.697 | 0.708 | 0.738 | 0.675 | 0.738 | 1.01 | 1.1 | 1.22 | 1.17 | 1.01 | 0.347 | 0.363 | 0.336 | 0.352 | 0.378 |
| A-427 |  | 0.987 | 0.976 | 0.986 | 0.936 | 0.702 | 0.8 | 0.926 | 0.748 | 0.73 | 1.03 | 1.12 | 1.08 | 1.1 | 1.11 | 0.508 | 0.544 | 0.568 | 0.545 | 0.546 |
| ABC-1 | 0.294 | 0.309 | 0.297 | 0.289 | 0.312 | 0.818 |  | 0.668 | 0.991 | 0.802 | 1.01 | 1.07 | 1.3 | 1.26 | 1 | 0.623 | 0.57 | 0.609 | 0.763 | 0.724 |
| BEN | 0.769 | 0.904 | 0.757 | 0.784 | 0.733 | 0.494 | 0.552 | 0.615 | 0.566 | 0.52 | 0.598 | 0.704 | 0.576 | 0.665 | 0.644 | 0.487 | 0.467 | 0.452 | 0.445 | 0.496 |
| CAL-12T | 1.04 | 1.06 | 1.07 | 1.21 | 1.05 | 0.47 | 0.58 | 0.431 | 0.628 | 0.414 | 1.07 | 1.27 | 1.32 | 1.03 | 1.28 | 0.416 | 0.427 | 0.46 | 0.493 | 0.473 |
| COR-L23 | 0.995 | 1.02 | 1 | 1.13 |  | 0.788 | 1.04 | 0.97 | 0.881 | 0.812 | 0.972 | 0.945 | 1.14 | 0.961 | 0.969 | 0.305 | 0.402 | 0.324 | 0.295 | 0.363 |
| COR-L 105 | 0.977 | 0.877 | 0.923 | 1.01 | 0.823 | 0.371 | 0.415 | 0.569 | 0.364 | 0.409 | 1.07 | 1.22 | 0.952 | 1.12 | 1.12 | 0.431 | 0.399 | 0.436 | 0.405 | 0.458 |
| Calu-6 | 0.979 |  | 1.08 | 1.2 | 1.09 | 0.901 | 0.887 | 1.13 | 1.09 | 0.93 | 0.836 | 0.951 | 0.913 | 0.963 |  |  |  |  |  |  |
| ChaGo-K-1 | 1.04 | 1.03 | 1.03 | 0.977 | 1.05 | 0.766 | 0.786 | 0.774 | 0.624 | 0.756 | 0.852 | 0.906 | 1 | 0.914 | 0.869 | 0.919 | 0.918 | 0.945 | 0.933 | 0.801 |
| EBC-1 | 0.475 | 0.573 | 0.65 | 0.532 | 0.534 | 0.41 | 0.377 | 0.463 | 0.411 | 0.46 | 0.101 | 0.112 | 0.0979 | 0.112 | 0.119 |  |  |  |  |  |
| EKVX | 1.07 | 1.04 | 1.18 | 1.06 | 1.09 | 0.456 | 0.437 | 0.578 | 0.495 | 0.577 | 0.739 | 0.752 | 0.918 | 1.3 | 0.892 | 0.423 | 0.453 | 0.508 | 0.403 | 0.463 |
| EMC-BAC-2 | 1.06 | 1.14 | 1.26 | 1.05 | 1.12 | 0.501 | 0.601 | 0.589 | 0.548 | 0.565 | 0.973 | 1.08 | 1.15 | 1.07 | 0.969 | 0.505 | 0.534 | 0.526 | 0.556 | 0.579 |
| EPLC-272H | 0.648 | 1.17 | 0.915 | 1.05 | 0.851 | 0.313 | 0.336 | 0.297 | 0.338 | 0.334 | 0.702 | 0.65 |  | 0.771 | 0.637 | 0.324 | 0.303 | 0.316 | 0.256 | 0.298 |
| H3255 | 0.817 |  | 0.827 | 0.995 | 0.822 | 0.465 | 0.495 | 0.519 | 0.514 | 0.495 | 0.782 | 0.573 | 0.819 | 0.861 | 1.01 | 0.313 | 0.299 | 0.302 | 0.311 | 0.331 |
| HARA | 1 | 1.17 | 1.32 | 1.22 | 1.14 | 0.397 | 0.374 | 0.606 | 0.31 | 0.323 | 0.857 | 1.13 | 0.97 | 0.991 | 0.868 | 0.268 | 0.257 | 0.201 | 0.246 | 0.275 |
| HCC-15 | 0.941 | 1.16 | 1.17 | 1.02 | 1.05 | 0.68 | 0.791 | 0.888 | 0.749 | 0.774 | 1.07 | 1.14 | 1.16 | 1.13 | 1.02 | 0.707 | 0.737 | 0.792 | 0.696 | 0.715 |
| HCC-44 | 0.893 | 0.898 | 1.1 |  | 0.88 | 0.524 | 0.653 | 0.968 | 0.786 | 0.598 |  |  |  |  |  |  |  | 1.01 | 0.925 | 1.01 |
